Test system: C57BL/6J mice injected with AAV (LacZ transgene)
Assay: In vivo mouse AAV model: intracellular cytokine staining of splenocytes
Settings: chow 30 mg/kg from 15 days prior to AAV; day 21; versus AAV group; N=10
Method: In-vivo mice experiments. C57BL/6J mice were purchased from Jackson Laboratories. 6-8-week male mice were divided into 3 groups—PBS group, AAV group and AAV+IRAK4 group all groups with 10 mice each. Zimlovisertib IRAK4 inhibitor (Synonyms: PF-06650833) Cat. No.: HY-19836 (MedChemExpress) was mixed with mouse chow Catalog #2016, Teklad Global 16% Protein Rodent Diets https://www.inotivco.com/rodent-natural-ingredient-2016-diets at a dose of 30 mg/kg. AAV+IRAK4 group was fed the chow with Zimlovisertib IRAK4 inhibitor 15 days prior to AAV injection whereas PBS and AAV group were fed with mouse chow Catalog #2016, Teklad Global 16% Protein Rodent Diets https://www.inotivco.com/rodent-natural-ingredient-2016-diets. PBS group mice were injected intramuscularly with 100 ul PBS, AAV group was injected intramuscularly with 1e11 vg per quadricep muscle of both legs, 100 ul volume.
Intracellular cytokine staining. Splenocytes were harvested from mouse spleens, and 2 million cells were seeded on a 96-well U-bottom plate. The cells were centrifuged at 2,000 rpm for 5 minutes and then resuspended with 100 μl of the RPMI containing 10% FBS and 1×2-mercaptoethanol. 10 μg/ml concentration of AAVrh32.33 overlapping peptide, AAVrh32.33 LacZ immunodominant peptide, and LacZ immunodominant peptide were prepared in the RPMI1640 containing 10% FBS, 1×2-mercaptoethanol, and 1:500 GolgiStop. For the positive control, 0.10 μg/ml PMA and 2 μg/ml Ionomycin solution were prepared in the RPIM1640 containing 10% FBS, 1×2-mercaptoethanol, and 1:500 GolgiStop. Then, 100 μl of the prepared solution was added to the cells, resulting in a final concentration of 5 μg/ml (or 0.05 μg/ml PMA and 1 μg/ml Ionomycin). The cells were incubated at 37° C. 5% CO2 incubator overnight to stimulate the cells. The next day, the cells were centrifuged at 2,000 rpm for 5 minutes, and then washed with the FACS buffer one time. The cells were stained with an antibody cocktail (1:100 anti-CD4 FITC, 1:100 anti-CD8a PerCP-Cy5.5, 1:100 anti-CD44 Pacific Blue, 1:100 Live/Dead Cell Stain Kit) for 30 minutes at 4° C. […]

CC[C@@H]1[C@H](F)C(=O)N[C@@H]1COc1nccc2cc(C(N)=O)c(OC)cc12 [zimlovisertib, 1-[[(2S,3S,4S)-3-Ethyl-4-fluoro-5-oxo-2-pyrrolidinyl]methoxy]-7-methoxy-6-isoquinolinecarboxamide]
reduce significantly: Interferon gamma producing activated CD8 T cells, splenocytes stimulated with AAV immunodominant peptide | Interferon gamma producing activated CD8 T cells, splenocytes stimulated with AAV peptide pools | Interferon gamma producing activated CD8 T cells, splenocytes stimulated with LacZ immunodominant peptide
